Structures can show the parent of a compound that is named as a salt. Some results are limits rather than exact numbers.

Experiment [1] relates to Plasmodium falciparum parasite. In words: Whole cell assay (assay 2). In kind it is cell-based. An excerpt:
Assay 2) Determination of Whole Cell Activity Against the Plasmodium falciparum Parasite
Compounds can be evaluated for whole cell actvity against the Plasmodium falciparum parasite according to the procedure described in Sijwali S. and Rosenthal P. J., (2004) Proceedings of the National Academy of Sciences of the United States of America (PNAS) 101 (13), 4384-4389 (see in particular “Measurement of Parasite Growth rates and Inhibitor Sensitivity” on page 4385); IC50 values can be calculated as described in Singh A. and Rosenthal P. J., (2001) Antimicrobial Agents and Chemotherapy 45(3), 949-951 (see in particular page 950, first column); synchronised parasites can be prepared as described in Divo A. A. et al., (1985) Protozool. 32, 59-64.

The target of experiment [2] is Cathepsin S (Homo sapiens, UniProt P25774). The experiment can be described thus: Cathepsin S enzymatic assay (assay 1). In kind it is biochemical. The settings on record: human recombinant enzyme, KQKLR-AMC substrate, pH 6.5. The essentials:
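Human recombinant cathepsin S activity was measured with the fluorogenic substrate KQKLR-AMC at 30 uM in 50 mM MES, pH 6.5, containing 0.5 mM CHAPS, 10 mM L-CYS and 5 mM EDTA with 1% DMSO. Enzyme and substrate were added to inhibitor wells, run at ambient temperature, quenched after 90 minutes with E-64, and AMC fluorescence (360/460 […]) was fit to give IC50.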

For experiment [3], the target named is T1, Cathepsin K (Homo sapiens, UniProt P43235).
T1 sequence (P43235 115-329): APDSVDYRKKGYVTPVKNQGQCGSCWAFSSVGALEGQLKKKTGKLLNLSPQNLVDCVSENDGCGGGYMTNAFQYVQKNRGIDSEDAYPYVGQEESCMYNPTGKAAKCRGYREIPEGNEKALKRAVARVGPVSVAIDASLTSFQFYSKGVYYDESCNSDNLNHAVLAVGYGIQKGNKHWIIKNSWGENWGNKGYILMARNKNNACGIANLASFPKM
In words: Cathepsin K enzymatic assay (assay 1). It is filed as biochemical. The note with it: human recombinant enzyme, Z-FR-AFC substrate, pH 5.5. The essentials:
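Human recombinant cathepsin K was assayed with the fluorogenic substrate Z-FR-AFC at 20 uM in 100 mM sodium acetate, pH 5.5, with 5 mM L-cysteine, 1 mM CHAPS, 5 mM EDTA and 1% DMSO. Enzyme plus substrate was added to wells holding inhibitor in DMSO. After 60 minutes at ambient temperature, 16.6 uM E-64 quenched the reaction. AFC fluorescence (excitation 405 nm, emission 530 nm) was read, and IC50 came from a four-parameter dose-response fit.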

Experiment [4] concerns the target Falcipain-2 (Plasmodium falciparum, UniProt Q8I6U4). In words: Falcipain-2 enzymatic assay (assay 1). In kind it is biochemical. The essentials: (§1)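 Recombinant parasite enzyme with 30 uM H-D-VLR-AFC in 100 mM sodium acetate pH 5.5, 10 mM DTT, 0.5 mM CHAPS, 1% DMSO, ambient temperature. Endpoint after 60 minutes, quenched with 16.6 uM E-64; AFC fluorescence (ex 405/em 530). IC50 from four-parameter fit, apparent KI assuming competitive inhibition.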

Experiment [5] concerns the target Falcipain-3 (Plasmodium falciparum, UniProt Q8IIL0). In words: Falcipain-3 enzymatic assay (assay 1). It is filed as biochemical. The essentials:
as §1

Chain of Falcipain-3 (Q8IIL0 243-492): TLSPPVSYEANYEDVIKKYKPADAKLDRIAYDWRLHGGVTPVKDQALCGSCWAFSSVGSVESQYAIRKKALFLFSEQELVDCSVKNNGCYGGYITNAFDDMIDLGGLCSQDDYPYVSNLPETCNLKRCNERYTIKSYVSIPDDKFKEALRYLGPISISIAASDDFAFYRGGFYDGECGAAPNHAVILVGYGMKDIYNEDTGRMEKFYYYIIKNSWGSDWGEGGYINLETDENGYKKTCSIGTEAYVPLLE
Chain of Falcipain-2 (Q8I6U4 244-484): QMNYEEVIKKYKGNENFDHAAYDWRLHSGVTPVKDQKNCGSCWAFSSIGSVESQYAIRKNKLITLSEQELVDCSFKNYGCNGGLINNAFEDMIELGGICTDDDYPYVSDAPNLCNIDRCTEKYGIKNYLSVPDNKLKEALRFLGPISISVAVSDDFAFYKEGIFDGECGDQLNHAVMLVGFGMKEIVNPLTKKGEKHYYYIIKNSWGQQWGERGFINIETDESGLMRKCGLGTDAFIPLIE
Chain of Cathepsin S (P25774 115-331): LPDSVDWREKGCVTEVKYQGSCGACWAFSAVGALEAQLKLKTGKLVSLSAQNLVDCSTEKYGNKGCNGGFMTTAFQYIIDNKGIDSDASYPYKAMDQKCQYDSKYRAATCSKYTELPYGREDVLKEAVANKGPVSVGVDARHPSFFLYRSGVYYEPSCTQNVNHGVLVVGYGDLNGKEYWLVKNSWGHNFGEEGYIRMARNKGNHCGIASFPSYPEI

Consider `CN1CCN(Cc2ccc(C(=O)NN(c3nc(C#N)ncc3Br)C3CCCC3)cc2)CC1` [Example 1B, N′-(5-bromo-2-cyano-4-pyrimidinyl)-N′-cyclopentyl-4-[(4-methyl-1-piperazinyl)methyl]benzohydrazide hydrochloride], for which the IC50 in experiment [1] (hydrochloride) is 2.5 to 15 nM; in experiment [2] it was less than 200 nM; in experiment [3], less than 1.5 nM.
As to `CN1CCN(Cc2ccc(-c3cncc(C(=O)NN(c4nc(C#N)ncc4Br)C4CCCC4)c3)cc2)CC1` [Example 45, N′-(5-bromo-2-cyano-4-pyrimidinyl)-N′-cyclopentyl-5-{4-[(4-methyl-1-piperazinyl)methyl]phenyl}-3-pyridinecarbohydrazide trifluoroacetate], the IC50 in experiment [1] (Plasmodium falciparum) is 2.5 to 15 nM; in experiment [4], less than 1 nM; in experiment [5], 2.5 to 15 nM; in experiment [2], less than 200 nM; in experiment [3], less than 1.5 nM.
As to `CN1CCN(Cc2ccc(C(=O)NN(c3nc(C#N)ncc3Br)C3CCCCC3)cc2)CC1` [Example 16, N′-(5-bromo-2-cyano-4-pyrimidinyl)-N′-cyclohexyl-4-[(4-methyl-1-piperazinyl)methyl]benzohydrazide trifluoroacetate], the IC50 is 15 to 150 nM in experiment [1] (Plasmodium falciparum); less than 1 nM in experiment [4]; 2.5 to 15 nM in experiment [5]; less than 1000 nM in experiment [2]; less than 1.5 nM in experiment [3].
For `CCCN1CCN(c2ccc(C(=O)NN(c3nc(C#N)ncc3Br)C3CCCCC3)cc2)CC1` [Example 80, N′-(5-bromo-2-cyano-4-pyrimidinyl)-N′-cyclohexyl-4-(4-propyl-1-piperazinyl)benzohydrazide trifluoroacetate], the IC50 in experiment [1] (Plasmodium falciparum) was 150 to 250 nM; in experiment [4], less than 1 nM; in experiment [5], 15 to 150 nM; in experiment [2], less than 200 nM; in experiment [3] it was less than 1.5 nM.

As a reminder, the IC50 is the concentration that gives 50% inhibition.

For the origin of these results see patent US20100009956A1, “NOVEL SUBSTITUTED PYRIMIDINES AS CYSTEINE PROTEASE INHIBITORS” (Glaxo Group Limited , a corporation, priority 2006, published 2010).
